Assay [1] has as its target T1, EtfABCX (Thermotoga maritima, UniProt Q9X1L6+Q9X1L7+Q9X1L8).
T1 construct: gene TM_1530; operon in pET-21a(+), N-terminal 9xHis tag, E. coli BL21(DE3) deltaiscR, anaerobic purification; superdimer (ABCX)2, 257 kDa, three FAD per supermonomer; with Ferredoxin-like protein FixX (EtfX; two [4Fe-4S] clusters)
The assay can be described thus: FAD released by […] SDS and quantified by absorbance. The assay is classed as binding. Particulars: co-purified; BF-FAD in EtfA, ET-FAD in EtfB, QR-FAD in EtfC.

Assay [2] has as its target T2, EtfAB (Thermotoga maritima, UniProt Q9X1L6+Q9X1L7).
T2 construct: gene TM_1530; recombinant EtfAB heterodimer from E. coli BL21(DE3) deltaiscR, 9xHis tag, 69 kDa expected, two FAD per heterodimer, purified anaerobically
The assay is described as follows: FAD released by […] SDS and quantified by absorbance. It is filed as binding. Particulars: co-purified; BF-FAD site in EtfA and ET-FAD site in EtfB.

In assay [3] the target is T2, EtfAB. The assay is described as follows: anaerobic SEC-SAXS with in-line UV-visible spectroscopy (flavin reduction, compaction). The conditions noted are these: 20 mM Tris-HCl pH 8.0, 200 mM NaCl, room temperature. The assay is classed as binding. On the technique in general: SEC sorts molecules by how far they enter the pores of the column.
Assay [4] concerns the target Thermotoga maritima Fix/EtfABCX supermonomer (ABCX heterotetramer protomer) (Thermotoga maritima). The assay is described as follows: SEC-MALS + other: SEC-SAXS; anaerobic SEC-MALS-SAXS of purified EtfABCX; KW-803 column, room temperature, 0.65 mL/min; 20 mM Tris-HCl pH 8.0, 200 mM NaCl with 0.01% DDM (also buffer only); no additive, NADH, NAD+ or DT in the running buffer.

For assay [5] the target is unchanged. The assay is described as above. The source holds these as a separate data set.
The target in assay [6] is T1, EtfABCX. The assay can be described thus: anaerobic SEC-MALS-SAXS with in-line UV-visible spectroscopy. It is filed as binding. The conditions noted are these: NAD+ in running buffer, 20 mM Tris-HCl pH 8.0, 200 mM NaCl, 0.01% DDM.

Here are results for 4 compounds from article PMC10765413, “Correlating Conformational Equilibria with Catalysis in the Electron Bifurcating EtfABCX of Thermotoga maritima” (Biochemistry, 2023).

Where two headings read alike, the source gives them in different places.

T2 sequence (Q9X1L6 entry or part of it): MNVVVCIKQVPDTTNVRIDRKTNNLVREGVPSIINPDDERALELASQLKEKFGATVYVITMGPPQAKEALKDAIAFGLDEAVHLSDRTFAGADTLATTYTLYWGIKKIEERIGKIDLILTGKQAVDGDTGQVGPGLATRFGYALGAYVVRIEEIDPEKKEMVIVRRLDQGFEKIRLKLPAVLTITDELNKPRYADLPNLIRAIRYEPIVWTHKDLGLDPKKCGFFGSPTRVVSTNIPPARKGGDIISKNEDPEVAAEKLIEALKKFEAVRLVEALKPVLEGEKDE
T2 sequence (Q9X1L7 entry or part of it): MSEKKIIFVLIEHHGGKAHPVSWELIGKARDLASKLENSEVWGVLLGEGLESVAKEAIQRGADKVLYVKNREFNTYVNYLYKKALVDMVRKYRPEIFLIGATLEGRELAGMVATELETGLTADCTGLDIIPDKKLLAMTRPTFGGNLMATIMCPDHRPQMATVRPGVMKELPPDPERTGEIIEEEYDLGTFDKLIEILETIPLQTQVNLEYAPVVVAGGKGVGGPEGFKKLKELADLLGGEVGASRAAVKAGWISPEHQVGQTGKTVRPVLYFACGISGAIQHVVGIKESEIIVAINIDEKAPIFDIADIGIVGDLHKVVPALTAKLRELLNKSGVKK
T1 sequence (Q9X1L6 2-285): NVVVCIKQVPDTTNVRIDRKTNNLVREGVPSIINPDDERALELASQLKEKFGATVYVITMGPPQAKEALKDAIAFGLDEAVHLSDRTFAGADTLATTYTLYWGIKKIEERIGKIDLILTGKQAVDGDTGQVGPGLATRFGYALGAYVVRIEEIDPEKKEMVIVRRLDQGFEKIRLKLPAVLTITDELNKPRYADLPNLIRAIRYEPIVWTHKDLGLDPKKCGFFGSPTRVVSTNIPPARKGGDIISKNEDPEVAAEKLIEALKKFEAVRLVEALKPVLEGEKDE
T1 sequence (Q9X1L7 1-338): as the sequence (Q9X1L7 entry or part of it) above
T1 sequence (Q9X1L8 1-438): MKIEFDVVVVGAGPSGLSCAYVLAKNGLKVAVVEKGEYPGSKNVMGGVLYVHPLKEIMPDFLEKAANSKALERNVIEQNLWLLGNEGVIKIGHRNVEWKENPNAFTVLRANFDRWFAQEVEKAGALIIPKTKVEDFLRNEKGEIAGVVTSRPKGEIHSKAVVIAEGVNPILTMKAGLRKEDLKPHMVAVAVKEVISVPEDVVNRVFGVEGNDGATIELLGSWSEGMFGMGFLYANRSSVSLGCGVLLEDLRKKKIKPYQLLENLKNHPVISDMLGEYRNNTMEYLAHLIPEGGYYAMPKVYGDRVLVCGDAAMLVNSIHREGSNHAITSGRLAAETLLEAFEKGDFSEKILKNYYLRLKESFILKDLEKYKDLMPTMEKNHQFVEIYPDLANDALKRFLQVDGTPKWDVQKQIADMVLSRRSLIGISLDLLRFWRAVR
T1 sequence (Q9X1L9 1-92 partner): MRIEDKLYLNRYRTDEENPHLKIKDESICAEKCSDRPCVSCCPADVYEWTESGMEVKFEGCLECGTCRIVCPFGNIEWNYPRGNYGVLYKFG

Turning to `Cc1cc2nc3c(=O)[nH]c(=O)nc-3n(C[C@H](O)[C@H](O)[C@H](O)COP(=O)(O)OP(=O)(O)OC[C@H]3O[C@@H](n4cnc5c(N)ncnc54)[C@H](O)[C@@H]3O)c2cc1C` [FAD], the “FAD released by 1% SDS and quantified by absorbance” value on EtfABCX [1] was “approximately three and two molecules of FAD per EtfABCX supermonomer and EtfAB heterodimer, respectively”; at EtfAB [2], “approximately three and two molecules of FAD per EtfABCX supermonomer and EtfAB heterodimer, respectively”.

As to `NC(=O)C1=CN([C@@H]2O[C@H](COP(=O)(O)OP(=O)(O)OC[C@H]3O[C@@H](n4cnc5c(N)ncnc54)[C@H](O)[C@@H]3O)[C@@H](O)[C@H]2O)C=CC1` [NADH], the “anaerobic SEC-SAXS with in-line UV-visible spectroscopy (flavin reduction, compa)” value on EtfAB [3] (excess NADH in running buffer) was “EtfAB in the presence of excess NADH indicated that its FAD cofactors were fully reduced”.

As to “Thermotoga maritima Fix/EtfABCX supermonomer (ABCX heterotetramer protomer) (complex)”, the stoichiometry N worked out at 2 in assay [4] and 4 in assay [5].

Turning to `NC(=O)c1ccc[n+]([C@@H]2O[C@H](COP(=O)(O)OP(=O)(O)OC[C@H]3O[C@@H](n4cnc5c(N)ncnc54)[C@H](O)[C@@H]3O)[C@@H](O)[C@H]2O)c1` [NAD^+], the “anaerobic SEC-SAXS with in-line UV-visible spectroscopy (flavin reduction, compa)” value on EtfAB [3] (excess NAD+ in running buffer, as-purified enzyme) is listed as “EtfAB in the presence of NAD^+ led the enzyme into a more extended state”. Besides, the “anaerobic SEC-MALS-SAXS with in-line UV-visible spectroscopy” value on EtfABCX [6] is given as “likely due to the formation of an EtfABCX-NAD^+ complex”.

By stoichiometry N is commonly meant a count of units in the complex or per binding partner.
